Experimental data: the supplement of paper PMC4932681
Where a name gives a salt, the structure may show the parent alone.

Legend:
[1] = tested on: BT-474 Tam1; test: drug sensitivity score (DSS) (DSS (dimensionless)); higher = more sensitive; extreme values may be limits of the assay; details: 4-OH-tamoxifen in medium 1 µM; 72 h
How it was run: (§1)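 CellTiter-Glo viability was the readout, taken on a PHERAstar and normalised to vehicle-only and positive controls. It was measured after breast cancer cell lines and their resistant derivatives spent 72 h at 37 °C in 384-well plates containing library drugs at five concentrations spanning a 10 000-fold range, with 1 μM of the selecting drug in the medium of resistant lines. From logistic dose–response fits in the Breeze pipeline came drug sensitivity score, relative IC50 (curve midpoint) and top-dose inhibition.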

[2] = tested on: BT-474 Tam2; test: as above; details: 4-OH-tamoxifen in medium 1 µM; 72 h
How it was run: as §1

[3] = tested on: BT-474; test: as above; details: 72 h
How it was run: as §1

[4] = tested on: MCF-7 Tam1; test: as above; details: 4-OH-tamoxifen in medium 1 µM; 72 h
How it was run: as §1

[5] = tested on: MCF-7; test: as above; details: 72 h
How it was run: as §1

[6] = tested on: T-47D Tam1; test: as above; details: 4-OH-tamoxifen in medium 1 µM; 72 h
How it was run: as §1

[7] = tested on: T-47D Tam2; test: as above; details: 4-OH-tamoxifen in medium 1 µM; 72 h
How it was run: as §1

[8] = tested on: T-47D; test: as above; details: 72 h
How it was run: as §1

[9] = tested on: ZR-75-1 Tam1; test: as above; details: 4-OH-tamoxifen in medium 1 µM; 72 h
How it was run: as §1

[10] = tested on: ZR-75-1 Tam2; test: as above; details: 4-OH-tamoxifen in medium 1 µM; 72 h
How it was run: as §1

[11] = tested on: ZR-75-1; test: as above; details: 72 h
How it was run: as §1

[12] = tested on: BT-474 Tam1; test: relative IC50 (midpoint of fitted logistic curve, plateau may be below 50% inhibition; CellTiter-Glo viability); higher = less potent; details: 4-OH-tamoxifen in medium 1 µM; 72 h
How it was run: as §1

[13] = tested on: BT-474 Tam2; test: as above; details: 4-OH-tamoxifen in medium 1 µM; 72 h
How it was run: as §1

[14] = tested on: BT-474; test: as above; details: 72 h
How it was run: as §1

[15] = tested on: MCF-7 Tam1; test: as above; details: 4-OH-tamoxifen in medium 1 µM; 72 h
How it was run: as §1

[16] = tested on: MCF-7; test: as above; details: 72 h
How it was run: as §1

[17] = tested on: T-47D Tam1; test: as above; details: 4-OH-tamoxifen in medium 1 µM; 72 h
How it was run: as §1

[18] = tested on: T-47D Tam2; test: as above; details: 4-OH-tamoxifen in medium 1 µM; 72 h
How it was run: as §1

[19] = tested on: T-47D; test: as above; details: 72 h
How it was run: as §1

[20] = tested on: ZR-75-1 Tam1; test: as above; details: 4-OH-tamoxifen in medium 1 µM; 72 h
How it was run: as §1

[21] = tested on: ZR-75-1 Tam2; test: as above; details: 4-OH-tamoxifen in medium 1 µM; 72 h
How it was run: as §1

[22] = tested on: ZR-75-1; test: as above; details: 72 h
How it was run: as §1

## Cc1ccc([N+](=O)[O-])cc1S(=O)(=O)N(C)/N=C/c1cnc2ccc(Br)cn12 [PIK-75 (HCl)]
[1]
  drug sensitivity score: 29.8
[2]
  drug sensitivity score: 26.8
[3]; 4-OH-tamoxifen in medium 0 µM
  drug sensitivity score: 21.2
[3]; 4-OH-tamoxifen in medium 1 µM
  drug sensitivity score: 27.2
[4]
  drug sensitivity score: 22.6
[5]; 4-OH-tamoxifen in medium 0 µM
  drug sensitivity score: 22.3
[5]; 4-OH-tamoxifen in medium 1 µM
  drug sensitivity score: 26.4
[6]
  drug sensitivity score: 25.1
[7]
  drug sensitivity score: 20.5
[8]; 4-OH-tamoxifen in medium 0 µM
  drug sensitivity score: 21.8
[8]; 4-OH-tamoxifen in medium 1 µM
  drug sensitivity score: 15.3
[9]
  drug sensitivity score: 14.9
[10]
  drug sensitivity score: 18.9
[11]; 4-OH-tamoxifen in medium 0 µM
  drug sensitivity score: 16.9
[11]; 4-OH-tamoxifen in medium 1 µM
  drug sensitivity score: 16.7
[12]
  relative IC50: 31.6 nM
[13]
  relative IC50: 58.7 nM
[14]; 4-OH-tamoxifen in medium 0 µM
  relative IC50: 148 nM
[14]; 4-OH-tamoxifen in medium 1 µM
  relative IC50: 48.6 nM
[15]
  relative IC50: 50.5 nM
[16]; 4-OH-tamoxifen in medium 0 µM
  relative IC50: 33.2 nM
[16]; 4-OH-tamoxifen in medium 1 µM
  relative IC50: 30.5 nM
[17]
  relative IC50: 48.3 nM
[18]
  relative IC50: 82.6 nM
[19]; 4-OH-tamoxifen in medium 0 µM
  relative IC50: 33.2 nM
[19]; 4-OH-tamoxifen in medium 1 µM
  relative IC50: 81.3 nM
[20]
  relative IC50: 309 nM
[21]
  relative IC50: 108 nM
[22]; 4-OH-tamoxifen in medium 0 µM
  relative IC50: 133 nM
[22]; 4-OH-tamoxifen in medium 1 µM
  relative IC50: 94.5 nM

## CC(C)C[C@H](NC(=O)[C@H](Cc1ccccc1)NC(=O)c1cnccn1)B(O)O [Bortezomib]
[1]
  drug sensitivity score: 29.5
[2]
  drug sensitivity score: 26.7
[3]; 4-OH-tamoxifen in medium 0 µM
  drug sensitivity score: 13.2
[3]; 4-OH-tamoxifen in medium 1 µM
  drug sensitivity score: 29.1
[4]
  drug sensitivity score: 11.3
[5]; 4-OH-tamoxifen in medium 0 µM
  drug sensitivity score: 19.9
[5]; 4-OH-tamoxifen in medium 1 µM
  drug sensitivity score: 14
[6]
  drug sensitivity score: 30.4
[7]
  drug sensitivity score: 26.5
[8]; 4-OH-tamoxifen in medium 0 µM
  drug sensitivity score: 25.6
[8]; 4-OH-tamoxifen in medium 1 µM
  drug sensitivity score: 23.7
[9]
  drug sensitivity score: 13.9
[10]
  drug sensitivity score: 16.4
[11]; 4-OH-tamoxifen in medium 0 µM
  drug sensitivity score: 9.65
[11]; 4-OH-tamoxifen in medium 1 µM
  drug sensitivity score: 10.7
[12]
  relative IC50: 3.55 nM
[13]
  relative IC50: 5.98 nM
[14]; 4-OH-tamoxifen in medium 0 µM
  relative IC50: 12.7 nM
[14]; 4-OH-tamoxifen in medium 1 µM
  relative IC50: 3.72 nM
[15]
  relative IC50: 39.9 nM
[16]; 4-OH-tamoxifen in medium 0 µM
  relative IC50: 6.82 nM
[16]; 4-OH-tamoxifen in medium 1 µM
  relative IC50: 44.5 nM
[17]
  relative IC50: 2.79 nM
[18]
  relative IC50: 5.5 nM
[19]; 4-OH-tamoxifen in medium 0 µM
  relative IC50: 6.27 nM
[19]; 4-OH-tamoxifen in medium 1 µM
  relative IC50: 8.31 nM
[20]
  relative IC50: 20.1 nM
[21]
  relative IC50: 8.96 nM
[22]; 4-OH-tamoxifen in medium 0 µM
  relative IC50: 73.1 nM
[22]; 4-OH-tamoxifen in medium 1 µM
  relative IC50: 31.4 nM

## c1cc(CN2CCCNCCNCCCNCC2)ccc1CN1CCCNCCNCCCNCC1 [Plerixafor]
[1]
  drug sensitivity score: 0
[2]
  drug sensitivity score: 0
[3]; 4-OH-tamoxifen in medium 0 µM
  drug sensitivity score: 0
[3]; 4-OH-tamoxifen in medium 1 µM
  drug sensitivity score: 0
[4]
  drug sensitivity score: 0
[5]; 4-OH-tamoxifen in medium 0 µM
  drug sensitivity score: 0
[5]; 4-OH-tamoxifen in medium 1 µM
  drug sensitivity score: 0
[6]
  drug sensitivity score: 0
[7]
  drug sensitivity score: 0
[8]; 4-OH-tamoxifen in medium 0 µM
  drug sensitivity score: 0.403
[8]; 4-OH-tamoxifen in medium 1 µM
  drug sensitivity score: 0
[9]
  drug sensitivity score: 0
[10]
  drug sensitivity score: 0
[11]; 4-OH-tamoxifen in medium 0 µM
  drug sensitivity score: 0
[11]; 4-OH-tamoxifen in medium 1 µM
  drug sensitivity score: 0
[12]
  relative IC50: > 2500 nM
[13]
  relative IC50: > 2500 nM
[14]; 4-OH-tamoxifen in medium 0 µM
  relative IC50: > 2500 nM
[14]; 4-OH-tamoxifen in medium 1 µM
  relative IC50: > 2500 nM
[15]
  relative IC50: > 2500 nM
[16]; 4-OH-tamoxifen in medium 0 µM
  relative IC50: > 2500 nM
[16]; 4-OH-tamoxifen in medium 1 µM
  relative IC50: > 2500 nM
[17]
  relative IC50: > 2500 nM
[18]
  relative IC50: > 2500 nM
[19]; 4-OH-tamoxifen in medium 0 µM
  relative IC50: > 2500 nM
[19]; 4-OH-tamoxifen in medium 1 µM
  relative IC50: > 2500 nM
[20]
  relative IC50: > 2500 nM
[21]
  relative IC50: > 2500 nM
[22]; 4-OH-tamoxifen in medium 0 µM
  relative IC50: > 2500 nM
[22]; 4-OH-tamoxifen in medium 1 µM
  relative IC50: > 2500 nM
